The GI50 is the concentration at which growth is held to half of that of the control. The TGI is the concentration giving total growth inhibition. Read a low TGI as more potent growth arrest.

Among the test systems are OVCAR-5 ovarian; SF-295 CNS; HOP-62 NSCLC; MALME-3M melanoma; KM12 colon; OVCAR-8 ovarian; SK-MEL-2 melanoma; SW-620 colon.
Assay in all cases: DTP human tumour cell line panel, 48 h

Values joined by “and” are separate entries in the source; they are usually repeats but may differ in a detail not shown here. Equal entries are not always repeated.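 Each compound was tested at five concentrations against cells in 96-well plates for 48 hours. GI50 = concentration required for 50% inhibition of growth. TGI denotes the concentration required for complete inhibition of growth.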 Where only a bound is given, the exact number is not on record here.

For `Cc1c(O)cccc1C(=O)N[C@@H](CSc1ccccc1)[C@H](O)CN1C[C@H]2CCCC[C@H]2C[C@H]1C(=O)NC(C)(C)C`, the GI50 with OVCAR-5 ovarian is 8.95 µM and 6.31 µM; in the experiment on SF-295 CNS it was 2.53 µM and 3.49 µM; with HOP-62 NSCLC it was 7.26 µM and 5 µM; in the experiment with MALME-3M melanoma it was 2130 nM and 7030 nM; in the experiment on KM12 colon, 3.45 µM and 4.99 µM; in the experiment on OVCAR-8 ovarian, 6.56 µM and 7.87 µM. Besides, the GI50 is 5.63 µM and 5.26 µM in the experiment on SK-MEL-2 melanoma; 5.66 µM and 8.79 µM in the experiment on SW-620 colon. Besides, the TGI in the experiment on OVCAR-5 ovarian was 31.6 µM and 19 µM; with SF-295 CNS it was 6.97 µM and 25.5 µM; in the experiment on HOP-62 NSCLC it was 21.3 µM and 14.6 µM; in the experiment with MALME-3M melanoma, 8.41 µM and 18.6 µM; in the experiment on KM12 colon it was 10.4 µM and 20.1 µM; in the experiment on OVCAR-8 ovarian, 35.2 µM and 39.6 µM. The TGI in the experiment on SK-MEL-2 melanoma was > 100 µM and 25.4 µM; in the experiment on SW-620 colon it was 27 µM and 29.9 µM.
Turning to `Cc1[nH]c(C(=O)Nc2cccc(OC3CCNCC3)c2)c(Cl)c1Cl`, the GI50 with OVCAR-5 ovarian was 1.63 µM; in the experiment with SF-295 CNS, 1.97 µM; in the experiment with HOP-62 NSCLC it was 1.9 µM; in the experiment on MALME-3M melanoma it was 1600 nM; in the experiment with KM12 colon, 1.93 µM; in the experiment with OVCAR-8 ovarian, 2.05 µM. Further, the results for the GI50 in the experiment on SK-MEL-2 melanoma and with SW-620 colon were 2.14 µM and 1.88 µM, respectively. In addition, the TGI was determined as 3.11 µM in the experiment on OVCAR-5 ovarian; 3.96 µM with SF-295 CNS; 4.53 µM in the experiment with HOP-62 NSCLC; 3.22 µM in the experiment with MALME-3M melanoma; 3.73 µM with KM12 colon; 4.31 µM in the experiment with OVCAR-8 ovarian. In addition, the TGI in the experiment on SK-MEL-2 melanoma was determined as 4.54 µM; with SW-620 colon, 3.64 µM.
For the compound `CC1(C)CC[C@]23CC[C@]4(C)[C@H](CC[C@@H]5[C@@]6(C)CCCNC(C)(C)[C@@H]6CC[C@]54C)[C@H]2[C@H]1OC3`, the GI50 with OVCAR-5 ovarian was 1.6 µM; with SF-295 CNS, 1.7 µM; with HOP-62 NSCLC, 1.91 µM; in the experiment on MALME-3M melanoma it was 1790 nM; with SK-MEL-2 melanoma it was 1.95 µM; in the experiment on SW-620 colon, 1.75 µM. For the same compound, the TGI with OVCAR-5 ovarian was 3.04 µM; in the experiment on SF-295 CNS, 3.19 µM; in the experiment with HOP-62 NSCLC, 3.75 µM; in the experiment on MALME-3M melanoma it was 3.47 µM; with SK-MEL-2 melanoma, 4.09 µM; with SW-620 colon, 3.49 µM.
On to `Cc1ccc2ncnc(N(C)C3CCCCC3)c2c1`, for which the GI50 was 41.2 µM in the experiment on OVCAR-5 ovarian; 18.9 µM in the experiment on SF-295 CNS; 28.7 µM in the experiment with HOP-62 NSCLC; 56000 nM in the experiment with MALME-3M melanoma; 35.6 µM in the experiment on KM12 colon; 14.6 µM in the experiment with OVCAR-8 ovarian. The GI50 in the experiment with SK-MEL-2 melanoma was 37.5 µM. The total growth inhibition concentration (TGI) was above 100 µM in the experiment on OVCAR-5 ovarian; 46.9 µM in the experiment with SF-295 CNS; above 100 µM with HOP-62 NSCLC; above 100 µM in the experiment with MALME-3M melanoma; above 100 µM with KM12 colon; 63.8 µM in the experiment on OVCAR-8 ovarian. The compound also displayed a TGI in the experiment with SK-MEL-2 melanoma above 100 µM.
In the case of `CCCCCc1cc(/C=C2/N=C(c3ccc[nH]3)C=C2OC)[nH]c1C`, the TGI in the experiment with OVCAR-5 ovarian was 1.26 µM; in the experiment with SF-295 CNS it was below 0.0282 µM; in the experiment on HOP-62 NSCLC, 0.362 µM; in the experiment on MALME-3M melanoma, 0.275 µM; in the experiment on KM12 colon, 0.364 µM; in the experiment on OVCAR-8 ovarian it was 1.25 µM. This compound also registered a TGI in the experiment with SW-620 colon of 0.206 µM.
`CCN1CCN(Cc2ccc(NC(=O)Nc3nc(-c4cc(OC)c(OC)c(OC)c4)cs3)cc2C(F)(F)F)CC1`: the GI50 is 1.62 µM with OVCAR-5 ovarian; 1.55 µM in the experiment with SF-295 CNS; 1.65 µM in the experiment on KM12 colon; 1.9 µM in the experiment with SK-MEL-2 melanoma; 1.62 µM in the experiment on SW-620 colon. The TGI worked out at 3.44 µM with OVCAR-5 ovarian; 3.13 µM in the experiment with SF-295 CNS; 3.35 µM with KM12 colon; 3.61 µM in the experiment on SK-MEL-2 melanoma; 3.31 µM with SW-620 colon.
As for `Cc1ccc(NC(=S)NNC(=S)Nc2ccc(C)cc2)cc1`, the GI50 in the experiment with OVCAR-5 ovarian is above 100 µM; in the experiment on SF-295 CNS, 3.16 µM; with MALME-3M melanoma, 7070 nM; with KM12 colon, 3.63 µM; in the experiment on OVCAR-8 ovarian it was 7.95 µM; in the experiment with SK-MEL-2 melanoma, 2.66 µM. Also, the GI50 in the experiment on SW-620 colon is 3.81 µM. For the same compound, the TGI in the experiment with OVCAR-5 ovarian was above 100 µM; with SF-295 CNS it was above 100 µM; with MALME-3M melanoma it was above 100 µM; in the experiment on KM12 colon, above 100 µM; with OVCAR-8 ovarian it was above 100 µM; with SK-MEL-2 melanoma, 8.68 µM. The compound further yielded a TGI in the experiment on SW-620 colon above 100 µM.
For `Cc1ccc(C2=NN(c3ccc(S(=O)(=O)NC(=O)NCc4ccccc4)cc3)C(c3ccc(N(C)C)cc3)C2)c(C)c1` (configuration not stated), the GI50 with OVCAR-5 ovarian was 5.4 µM; with HOP-62 NSCLC, 5.69 µM; in the experiment with MALME-3M melanoma, 2900 nM; in the experiment with KM12 colon it was 3.49 µM; in the experiment with OVCAR-8 ovarian it was 3.81 µM; in the experiment on SK-MEL-2 melanoma it was 3.32 µM. Also, in the experiment with SW-620 colon, the GI50 was 3.94 µM. In addition, the TGI in the experiment on OVCAR-5 ovarian is 29.3 µM; with HOP-62 NSCLC it was 28 µM; in the experiment on MALME-3M melanoma it was 9.14 µM; in the experiment with KM12 colon, 15.4 µM; in the experiment on OVCAR-8 ovarian it was above 100 µM; in the experiment with SK-MEL-2 melanoma it was 8.85 µM. In addition, the TGI in the experiment on SW-620 colon was 23.7 µM.
In the case of `CC(=O)OC(COc1ccc2c(c1)[n+]([O-])nc(N)[n+]2[O-])CN1CCCCC1` (configuration not stated), the TGI in the experiment with OVCAR-5 ovarian was 61.2 µM; with MALME-3M melanoma, 24.2 µM; in the experiment with KM12 colon it was 50.4 µM; in the experiment on OVCAR-8 ovarian, 41 µM; with SK-MEL-2 melanoma, 26.4 µM; in the experiment on SW-620 colon it was above 100 µM.
With `Clc1nc(Cl)c2ncn(-c3ccccc3)c2n1`, the GI50 was 15 µM in the experiment on OVCAR-5 ovarian; 10.3 µM in the experiment with SF-295 CNS; 2010 nM with MALME-3M melanoma; 12.8 µM in the experiment on KM12 colon; 4.4 µM in the experiment on OVCAR-8 ovarian; 13.8 µM in the experiment on SK-MEL-2 melanoma. The GI50 in the experiment on SW-620 colon was 2.08 µM. Moreover, the TGI with OVCAR-5 ovarian was determined as 30.4 µM; in the experiment with SF-295 CNS, 23 µM; in the experiment with MALME-3M melanoma, 7.12 µM; in the experiment on KM12 colon, 25.8 µM; in the experiment with OVCAR-8 ovarian it was 19 µM; in the experiment with SK-MEL-2 melanoma, 27.1 µM. The compound also returned a TGI with SW-620 colon of 5.74 µM.
For `CCCCCOC(=O)Nc1nc(=O)n(C2OC(C)C(O)C2O)cc1F` (configuration not stated), the GI50 with OVCAR-5 ovarian, in the experiment with SF-295 CNS, with HOP-62 NSCLC, in the experiment with KM12 colon, in the experiment with OVCAR-8 ovarian and in the experiment on SK-MEL-2 melanoma was above 10000 µM each time. For the same compound, in the experiment on SW-620 colon, the GI50 was above 10000 µM. Further, the TGI with OVCAR-5 ovarian, with SF-295 CNS, with HOP-62 NSCLC, in the experiment with KM12 colon, in the experiment with OVCAR-8 ovarian and in the experiment on SK-MEL-2 melanoma was above 10000 µM each time. Moreover, in the experiment on SW-620 colon, the TGI was above 10000 µM.

For the origin of these results see PubChem BioAssay (NCI).
